Experimental data taken from publication PMC10672221, “The Plant Defensin Ppdef1 Is a Novel Topical Treatment for Onychomycosis” (Journal of Fungi, 2023).
Positions of bridges follow the written chain, without caps; N, C: chain ends. No end group written: not given here.

Tests used:
[1] = systemic (oral), after a 12 week treatment; cited from earlier work
Description: These infections are hard to treat, can be painful, and have a cosmetic impact on the patient. Current topical treatments for onychomycosis require daily or weekly application for 48 weeks, and even these exhaustive treatment regimens produce low complete cure rates. Until 2014, […]® and its generic equivalents, with the active ingredient ciclopirox, were the only prescription strength topical onychom ... || Several systemic (oral) treatments have been approved for the treatment of onychomycosis. […] The FDA reported in its review of efinaconazole (Center for Drug Evaluation and Research; […] Fungicidal activity in the presence of keratin is hypothesised to correlate with the clinical efficacy for the topical onychomycosis products, ciclopirox and efinaconazole. The complete cu ...

[2] = Nail penetration assay (Franz cell nail adaptors); format: in vitro ADME, human; settings: for average penetration per day at Days 7-10: Ppdef1 1% (six replicates), terbinafine 1% in same vehicle (four replicates); for maximum level of penetration on any one day: 10 days daily application, efinaconazole 10% as Jublia (maximum on day 8); for applied dose that penetrated the nails on all days, except for terbinafine on Days 7 and 9: efinaconazole 10%
Protocol: Nail penetration assays were conducted essentially as described by Hui et al.. Human fingernail clippings (minimum size: 6.5 mm × 6.5 mm) were hydrated by placing them on folded Kimwipe tissues soaked in 3 mL of phosphate-buffered saline (PBS, pH 7.4) for 3 h at 26 °C. After hydration, nails were placed in plastic Franz cell nail adaptors (Perme Gear, Hellerton, PA, USA) with cotton wool (20 mg ± 2 mg) pre-soaked with 100 µL of phosphate-buffered saline with Tween 0.05% (PBST, pH 7.4) placed underneath the nail. Nails were sealed into the adaptors with silicone and checked for leaks by applying 10 µL of water to the top of the nail for at least 20 min (RT). Ppdef1 drug product (10 µL; 1% Ppdef1 in 50 mM acetate buffer, pH 4.0, 20% isopropanol, 20% propylene glycol), terbinafine (1% in 50 mM acetate buffer, pH 4.0, 20% isopropanol, 20% propylene glycol), or efinaconazole (formulated as Jublia (Valeant)) was applied to the top of the nail, and nails were incubated at 26 °C for 16 h in a Petri dish. A moist Kimwipe was added to the Petri dish to maintain humidity. After 16 h, the cotton wool was removed from the underside of the nail and set aside for analysis. The top of the nail was washed to collect excess test compound that had not penetrated the nail. First, a dry cotton swab was used to collect any excess liquid on the nail. A second swab soaked in 100 µL of water was then wiped over the top of the nail. An additional dry swab was used to collect any remaining liquid. A fresh piece of cotton wool soaked in 100 µL PBST was added to the underside of the nail. The nail was incubated at 26 °C for 1 h to allow for rehydration. Additional test solution (10 µL) was applied, and the process was repeated daily for 10 days. To quantify the amount of test item that had penetrated the nail, cotton wool removed from the underside of the nail was washed twice with 500 mM CaCl2 (200 µL) and then once with 0.1% TFA (200 µL). The cotton wool was incubated with the wash solution for 10 min at 26 °C for each wash. Cotton wool washes were pooled and analysed using RP-HPLC (300SB-C8 analytical column attached to a 1200 series HPLC (Agilent, Santa Clara, CA, USA)). Ethics approval for use of the nail clippings was granted by the La Trobe University Human Ethics Committee for the collection of nail clippings (approval number: HEC18414).

C. albicans cells = test: Propidium iodide uptake in response to antifungal treatment (flow cytometry); format: cell-based, Candida albicans; settings: 30 min; for treated cells no longer viable (PI positive): 50 µg/mL; for treated cells no longer viable (PI positive) / treated cells no longer viable / cells killed (PI positive): 30 °C, 1/2 PDB, flow cytometry; for treated cells no longer viable / cells killed (PI positive): 100 µg/mL
Protocol: A culture of C. albicans cells (OD600 = 0.3 in ½ PDB) was prepared. Aliquots of the culture (300 µL) were transferred to 1.5 mL tubes and treated with 3.125, 6.25, 12.5, 25, 50, or 100 µg/mL of Ppdef1, efinaconazole, ciclopirox, terbinafine, or tavaborole. Water or dimethyl sulfoxide (DMSO) was added to the untreated control samples. Propidium iodide (2 µL of 1 mg/mL stock) was also added to each sample, and the cells were incubated for 30 min at 30 °C before they were pelleted using centrifugation, resuspended in 300 µL of PBS and transferred to the wells of a 96-well plate. Cells were assessed for fluorescence using the PI channel on a FACS Canto 2 flow cytometer (BD). Cells with fluorescence of more than 185 rfu were considered positive for PI uptake.

[3] = test system: T. rubrum growing on human nail fragments; test: Cell killing of T. rubrum growing on nail fragments (PrestoBlue); format: cell-based, Trichophyton rubrum
Protocol: Human nail fragments (~2 mm × 2 mm) were sterilized in water at 99 °C for 4 h. A single nail fragment was placed into each well of a 96-well microtiter plate along with 100 µL of sterile water. T. rubrum conidia (100 µL) were added to obtain a final concentration of 1.5 × 10^5 conidia/mL. Control wells were inoculated with water only. Plates were then incubated for 96 h at 28 °C without shaking to allow T. rubrum to colonise the nail material. After the nail fragments were colonised with T. rubrum, they were treated with Ppdef1 or efinaconazole at a final concentration of 100 or 200 µg/mL. Six replicate wells were used per treatment, and two independent replicates were performed. As efinaconazole was dissolved in ethanol, all wells treated with Ppdef1 were adjusted with ethanol to a final concentration of 1% ethanol. Plates were then incubated for 20 h at 28 °C.
After the 20 h incubation, 20 µL of PrestoBlue® (Thermo Fisher, Scoresby, Victoria, Australia) was added to each well, and the mixture was transferred to a black-wall, clear-bottom microplate. […] The reaction was allowed to proceed for 24 h before fluorescence was measured in an M5e spectrophotometer (Molecular Devices, San Jose, CA, USA) using an excitation wavelength of 560 nm and an emission wavelength of 590 nm as described in the manufacturer’s instructions (Thermo Fisher, Scoresby, Victoria, Australia).

[4] = 10 µL daily, 26 °C, RP-HPLC, average of six replicates
[5] = 10 µL daily, 26 °C, RP-HPLC, six replicates
[6] = terbinafine 1%, four replicates

maximum level of penetration on any one day [2, 6] [%]	applied dose that penetrated the nails on all days, except for terbinafine on Days 7 and 9 ([2]; terbinafine 1%)	Compound	cure rate [1] [%]	average penetration per day at Days 7-10 ([2]; 10 µL daily, 26 °C, RP-HPLC) [%]	treated cells no longer viable (PI positive) (C. albicans cells)	treated cells no longer viable / cells killed (PI positive) (C. albicans cells)	other results
–	–	CCC(C)n1ncn(-c2ccc(N3CCN(c4ccc(OCC5COC(Cn6cncn6)(c6ccc(Cl)cc6Cl)O5)cc4)CC3)cc2)c1=O (stereo not shown) [itraconazole]	14	–	–	–	–
–	–	AKVCTKPSKFFKGLCGTDGACTTACRKEGLHSGYCQLKGFLNSVCVCRKHC (disulfide 4-51, 15-35, 21-45, 25-47) [Ppdef1]	–	26.1	–	–	applied dose that penetrated the nail, first day ([2]; 10 µL applied daily, 26 °C, 16 h, cotton wool under nail, RP-HPLC, 1% Ppdef1 in 50 mM acetate pH 4.0, 20% isopropanol, 20% propylene glycol, average of six replicates): 13.3%; applied dose that penetrated the nail, Day 2 [2, 4]: 3.2%; applied dose that penetrated the nail, Day 3 [2, 4]: 2.0%; average penetration per day over Days 4, 5, and 6 [2, 5]: 13.1%; penetration by Day 7 [2, 5]: approximately 26%; applied dose that penetrated the nail on Days 7-10 ([2]; Ppdef1 1%): Greater than 20%; amount passed through the nail ([2]; daily application of 10 µL of a 1% solution for 10 days): more than 150 µg
–	–	Cc1cc(C2CCCCC2)n(O)c(=O)c1 [ciclopirox]	–	–	~ 20%	58.7%	–
2.2	less than 5%	C=C1CCN([C@H](C)[C@](O)(Cn2cncn2)c2ccc(F)cc2F)CC1 [efinaconazole]	–	–	no significant cell death	–	hyphal biomass killed relative to the untreated control ([3]; 200 µg/mL, keratin as sole nutrient source, 1% ethanol, 28 °C, PrestoBlue): little impact; decrease in viable fungi ([3]; either concentration (100 or 200 µg/mL)): did not cause a significant decrease; cell death (PI uptake) (C. albicans cells; any of the tested concentrations (3.125-100 µg/mL)): did not induce a significant cell death; average penetration per day on Days 1-7, 9, and 10 ([2]; efinaconazole 10% (Jublia), four replicates): approximately 0.5%
7.0	less than 5%	CN(C/C=C/C#CC(C)(C)C)Cc1cccc2ccccc12 [terbinafine]	38	3.8	no significant cell death	less than 25%	applied dose that penetrated the nails on Days 7 and 9 ([2]; terbinafine 1%): less than 10%; penetration observed on most days ([2]; terbinafine 1%, daily for 10 days, four replicates): approximately 3.0%
–	–	OB1OCc2cc(F)ccc21 [tavaborole]	–	–	no significant cell death	less than 25%	–
